Experimental data reported in US5691376A, “Substituted biphenyl derivatives” (American Home Products Corporation, priority 1996, dated 1997).
Counter-ions that a name gives are not always drawn.

How the values were obtained:
U937 PDE IV = assay: Test procedure No. 3: inhibition of PDE-IV isolated from U937 cells; format: biochemical; conditions: 1 μM [3H]-cAMP; 37° C.; pH 7.8; linear regression of percent inhibition
[1] = system: PDE IV isolated from dog tracheal muscle; assay: Test Procedure No. 1: inhibition of PDE IV from canine tracheal muscle (cAMP metabolism); format: biochemical, dog (canine); conditions: 1 μM 3H-cAMP, 10 μM CI-930, 30° C.
Protocol: A solution containing PDE IV is prepared from canine tracheal muscle as follows:
The dog is euthanized with an overdose of beuthanasia while under anesthesia induced by a 33 mg/kg IV bolus of Nembutal. The trachealis muscle is removed, cleaned of connective tissue, and minced thoroughly. Three to four grams of tissue is then homogenized in Tris-HCl buffer (pH 7.8) using a Polytron. The homogenate is then centrifuged at 25,000×g (4° C.) for 30 minutes. The supernatant is decanted and filtered through four layers of gauze, and applied to a 40 cm×2 cm DEAE-Sepharose column that is equilibrated with Tris-HCl buffer (pH 7.8). The column is then washed with an additional 240 mL of buffer to remove unbound proteins. PDE is eluted using 450 mL of Tris-HCl buffer containing a linear gradient of 0.0-1.0M Na-acetate (80 mL/hr), and 7.5 mL fractions are collected. Each fraction is assayed for cAMP- and cGMP-metabolizing PDE activity. Fractions eluting at approximately 0.6M Na-acetate, and containing cAMP but not cGMP metabolic activity are pooled and used as a PDE stock solution for assaying PDE IV inhibitory activity.
CI-930 is included as an inhibitor of the cyclic GMP-sensitive, cyclic AMP-selectivePDE (PDE III) that is also present in the PDE IV stock solution when prepared as described above.
The two abovementioned PDE IV inhibition tests were used to determine the PDE IV inhibitory abilities of some of the compounds of the present invention.

PDE IV = assay: Test Procedure No. 2: functional PDE IV inhibition, relaxation of carbachol-precontracted tracheal rings with CI-930; format: cell-based, guinea pig (Male Hartley); conditions: guinea pig tracheal rings precontracted with 1 μM carbachol; CI-930 10 μM; read-out: Test No. 2 IC50 (functional PDE inhibitory test)
Protocol: The following standard test is also employed to assess the abilities of compounds to inhibit PDE IV functionally.
Male Hartley guinea pigs (500-550 g, Charles River) were euthanized by a blow to the head, and the tracheas were removed and placed in aerated physiological salt solution (PSS) containing NaCl ([…]), KH2 PO4 ([…]), KCl (4.74 mM), CaCl2 (2.5 mM), MgSO4.7H2 O ([…]), NaHCO3 (25 mM), dextrose (11.1 mM), cocaine and hydrocortisone (3 μM and 10 μM, respectively, to block intraneural and extraneural uptake mechanisms), propranolol and phentolamine (1 μM and 10 μM, respectively, to block adrenoceptors),indomethacin (2.8 μM; to block spontaneous tension generation), and calcium disodium EDTA (26 μM, as an antioxidant). Tracheal rings were prepared and mounted in 10 ml organ baths for the measurement of isometric tension generation as previously described (Heaslip et al., 1986).
Tracheal relaxation resulting from the inhibition of PDE-IV or PDE-III was assessed by a method similar to that employed by Harris et al. (1989). Tracheal rings were precontracted with 1 μM carbachol until a stable level of tension was obtained (30 min). To explore the inhibition of PDE-IV, tracheal rings were then incubated (45 min) with CI-930 (10 μM), thus inhibiting PDE-III and sensitizing the ring to the relaxant effects of PDE-IV inhibitors. Conversely, the inhibition of tracheal PDE-III was explored using rings pretreated with rolipram (10 μM), and thereby sensitized to PDE-III inhibitors (Harris et al., 1989). The functional inhibition of PDE-IV or PDE-III was determined by adding a test compound to the tissue bath in cumulatively increasing concentrations and monitoring the degree of relaxation induced in the continued presence of CI-930 or rolipram (respectively). After adding the final concentration of test compound to the organ bath, tracheal rings were washed repeatedly with PSS, and allowed to relax to resting tension. Percent relaxations produced by each concentration of test compound were calculated as a percentage relaxation of tension maintained in the presence of the preincubating PDE inhibitor, relative to the final resting tension determined at the end of each experiment.
The two abovementioned PDE IV inhibition tests were used to determine the PDE IV inhibitory abilities of some of the compounds of the present invention. The table below indicates the compounds tested and the results thereof. For each of Tests 1 and 2, the results are given as IC50 s for the compound tested in M concentrations.

| SMILES | IC50 ([1]; pH 7.8) [nM] | other results |
| --- | --- | --- |
| COc1ccc(-c2ccc(C(=O)NCc3cccnc3)cc2)cc1OC1CCCC1 [Comparative Example 1, 3'-Cyclopentyloxy-4'-methoxy-biphenyl-4(3-methylpryridyl) carboxylic acid amide, reference compound] | – | IC50 (U937 PDE IV): > 1000 nM |
| COc1ccc(-c2ccc(C(=O)O)cc2)cc1OC1CCCC1 [Example 1, 3'-Cyclopentyloxy-4'-methoxy-biphenyl-4-carboxylic acid] | 245 | IC50 (U937 PDE IV): 230 nM |
| COc1ccc(-c2ccc(C(N)=O)cc2)cc1OC1CCCC1 [Example 2, 3'-Cyclopentyloxy-4'-methoxy-biphenyl-4-carboxylic acid amide] | 60 | IC50 (PDE IV): 160 nM |
| COc1ccc(-c2ccc(C(=O)NN)cc2)cc1OC1CCCC1 [Example 3, 3'-Cyclopentyloxy-4'-methoxy-biphenyl-4-carboxylic acid hydrazide] | 58 | IC50 (PDE IV): 66 nM |
| COc1ccc(-c2cccc(C(=O)NN)c2)cc1OC1CCCC1 [Example 4, 3'-Cyclopentyloxy-4'-methoxy-biphenyl-3-carboxylic acid hydrazide] | 100 | – |
| COc1ccc(-c2cccc(C(=O)O)c2)cc1OC1CCCC1 [Example 5, 3'-Cyclopentyloxy-4'-methoxy-biphenyl-3-carboxylic acid] | 23 | IC50 (PDE IV): 61 nM |
| COc1ccc(-c2ccc(Cl)cc2)cc1OC1CCCC1 [Example 6, 4-Chloro-3'-Cyclopentyloxy-4'-methoxy-biphenyl] | 100 | IC50 (PDE IV): 12000 nM |
| COc1ccc(-c2cccc(C=O)c2)cc1OC1CCCC1 [Example 8, 3'-Cyclopentyloxy-4'-methoxy-biphenyl-3-carbaldehyde] | 34 | IC50 (PDE IV): 330 nM |
| COc1ccc(-c2ccc(C=O)cc2)cc1OC1CCCC1 [Example 9, 3'-Cyclopentyloxy-4'-methoxy-biphenyl-4-carbaldehyde] | 20 | IC50 (PDE IV): 23 nM |
| COc1ccc(-c2ccccc2C=O)cc1OC1CCCC1 [Example 10, 3'-Cyclopentyloxy-4'-methoxy-biphenyl-2-carbaldehyde] | 100 | – |
| COc1ccc(-c2cccc(C(C)=O)c2)cc1OC1CCCC1 [Example 11, 1-(3'-Cyclopentyloxy-4'-methoxy-biphenyl-3-yl)-ethanone] | 4.3 | – |
| COc1ccc(-c2ccc(C(C)=O)cc2)cc1OC1CCCC1 [Example 12, 1-(3'-Cyclopentyloxy-4'-methoxy-biphenyl-4-yl)-ethanone] | 86 | – |
| COc1ccc(-c2ccc(C(=O)c3ccccc3)cc2)cc1OC1CCCC1 [Example 13, (3'-Cyclopentyloxy-4'-methoxy-biphenyl-4-yl)-phenylmethanone] | 610 | – |
| COc1ccc(-c2cccc(C#N)c2)cc1OC1CCCC1 [Example 14, 3'-Cyclopentyloxy-4'-methoxy-biphenyl-3-carbonitrile] | 84 | – |
| COc1ccc(-c2ccc(N)cc2)cc1OC1CCCC1 [Example 16, 3'-Cyclopentyloxy-4'-methoxybiphenyl-4-ylamine] | 330 | – |
| COc1ccc(-c2ccc(C(=O)O)cc2)cc1OC1CCCC1 [Example 17, 3'-Cyclopentyloxy-4'-methoxy-biphenyl-4-carboxylic acid sodium salt] | – | IC50 ([1]; pH 7.8, sodium salt): 110 nM |

| SMILES | IC50 ([1]; pH 7.8) [nM] | other results |
| --- | --- | --- |
| COC(=O)c1cccc(-c2ccc(OC)c(OC3CCCC3)c2)c1 [Example 18, 3'-Cyclopentyloxy-4'-methoxy-biphenyl-3-carboxylic acid methyl ester] | 31 | IC50 (PDE IV): 230 nM |
| COC(=O)c1ccc(-c2ccc(OC)c(OC3CCCC3)c2)cc1 [Example 19, 3'-Cyclopentyloxy-4'-methoxy-biphenyl-4-carboxylic acid methyl ester] | 580 | – |
| COc1ccc(-c2ccc3c(c2)CCCC3=O)cc1OC1CCCC1 [Example 20, 6-(3-Cyclopentyloxy-4-methoxy-phenyl)-3,4-dihydro-2H-naphthalen-1-one] | 59 | – |
| COc1ccc(-c2ccc3c(c2)CCC/C3=N\O)cc1OC1CCCC1 [Example 21, (E)-6-(3-Cyclopentyloxy-4-methoxy-phenyl)-3,4-dihydro-2H-naphthalen-1-one oxime] | 290 | – |
| COc1ccc(-c2ccc(C=NO)cc2)cc1OC1CCCC1 [Example 22, 3'-Cyclopentyloxy-4'-methoxy-biphenyl-4-carbaldehyde oxime] | 36 | IC50 (PDE IV): 140 nM |
| COc1ccc(-c2cccc(C=NO)c2)cc1OC1CCCC1 [Example 23, 3'-Cyclopentyloxy-4'-methoxy-biphenyl-3-carbaldehyde oxime] | 39 | IC50 (PDE IV): 1900 nM |
| COc1ccc(-c2ccc3c(c2)CCC/C3=N\OC(C)=O)cc1OC1CCCC1 [Example 25, E-6-(3-Cyclopentyloxy-4-methoxy-phenyl)-3,4-dihydro-2H-naphthalen-1-one oxime acetate] | 730 | – |
| COc1ccc(-c2ccc(NC(N)=O)cc2)cc1OC1CCCC1 [Example 26, (3'-Cyclopentyloxy-4'-methoxy-biphenyl-4-yl)-urea] | 270 | – |
| COc1ccc(-c2cccc(NC(N)=O)c2)cc1OC1CCCC1 [Example 27, (3'-Cyclopentyloxy-4'-methoxy-biphenyl-3-yl)-urea] | 550 | – |
| COc1ccc(-c2ccc(NC(C)=O)cc2)cc1OC1CCCC1 [Example 28, N-(3'-Cyclopentyloxy-4'-methoxy-biphenyl-4-yl)-acetamide] | 1000 | – |
| COc1ccc(-c2cccc(NC(C)=O)c2)cc1OC1CCCC1 [Example 29, N-(3'-Cyclopentyloxy-4'-methoxy-biphenyl-3-yl)-acetamide] | 470 | – |
| COc1ccc(-c2cccc(C(N)=O)c2)cc1OC1CCCC1 [Example 30, 3'-Cyclopentyloxy-4'-methoxy-biphenyl-3-carboxylic acid amide] | 16 | – |
| COc1ccc(-c2ccc(C(=O)NO)cc2)cc1OC1CCCC1 [Example 31, 3'-Cyclopentyloxy-4'-methoxy-biphenyl-4-carboxylic acid hydroxylamide] | 100 | – |
| COc1ccc(-c2ccc(C(=O)O)c(C(=O)O)c2)cc1OC1CCCC1 [Example 32, 3'-Cyclopentyloxy-4'-methoxy-biphenyl-3,4-dicarboxylic acid] | 10000 | – |
| COC(=O)c1ccc(-c2ccc(OC)c(OC3CCCC3)c2)cc1C(=O)OC [Example 33, 3'-Cyclopentyloxy-4'-methoxy-biphenyl-3,4-dicarboxylic acid dimethyl ester] | 1100 | – |
| COc1ccc(-c2ccc3c(=O)[nH][nH]c(=O)c3c2)cc1OC1CCCC1 [Example 34, 6-(3'-Cyclopentyloxy-4-methoxyphenyl)-2,3-dihydrophthalizine-1,4-dione] | 49 | – |
